The values that follow come from ChEMBL document CHEMBL3632622, “Synthesis and biological evaluation of novel N-phenyl ureidobenzenesulfonate derivatives as potential anticancer agents. Part 2. Modulation of the ring B” (Eur J Med Chem, 2015).

Molecules are shown by their SMILES.

The subject of the first test is M21. Description: Cell cycle arrest in human M21 cells assessed as accumulation at G2/M phase at 34 uM after 24 hrs by DAPI staining-based flow cytometry (reference value: 16%). It is filed as functional.
Details: not given
Background: In flow cytometry, cells or beads pass a laser one at a time.
In the case of `O=C(NCCCl)Nc1ccc(S(=O)(=O)Oc2cccc(F)c2)cc1`, the Activity came out at 86.9%.

A further test concerns M21. As to the kind of experiment: Cell cycle arrest in human M21 cells assessed as accumulation at subG1 phase at 7.6 uM after 24 hrs by DAPI staining-based flow cytometry (reference value: 1.5%). It is filed as functional.
Details: not given
For the molecule `Cc1ccc(C)c(OS(=O)(=O)c2ccc(NC(=O)NCCCl)cc2)c1`, the Activity was found to be 5.5%.

For the molecule `O=C(NCCCl)Nc1ccc(S(=O)(=O)Oc2cccc(I)c2)cc1`, the Activity turned out to be 3.6%.

A further test concerns M21. As to the kind of experiment: Antiproliferative activity against human M21 cells assessed as growth inhibition incubated for 48 hrs by sulforhodamine B assay. The test is classed as functional, cell-based. Conditions: M21, 48 h. On the technique in general: In SRB staining, fixed cells bind dye roughly in proportion to their protein.
Take `COc1ccc(OS(=O)(=O)c2ccc(NC(=O)NCCCl)cc2)cc1`: the IC50 is 17 µM.

On to `O=C(NCCCl)Nc1ccc(S(=O)(=O)Oc2ccc(I)cc2)cc1`, for which the IC50 was 11 µM.

On to `O=C(NCCCl)Nc1ccc(S(=O)(=O)Oc2ccc(F)cc2)cc1`, for which the IC50 was 12 µM.

For the molecule `O=C(NCCCl)Nc1ccc(S(=O)(=O)Oc2ccccc2)cc1`, the IC50 was 16 µM.

Regarding `Cc1ccc(C)c(OS(=O)(=O)c2ccc(NC(=O)NCCCl)cc2)c1`, the IC50 turned out to be 1.5 µM.

Turning to `O=C(NCCCl)Nc1ccc(S(=O)(=O)Oc2cccc(F)c2)cc1`, the IC50 stood at 5.3 µM.

Take `O=C(NCCCl)Nc1ccc(S(=O)(=O)Oc2cccc(I)c2)cc1`: the IC50 worked out at 1.2 µM.

Tested on in a further test: not listed separately
Description: Antiproliferative activity against human HT1080 cells assessed as growth inhibition incubated for 48 hrs by sulforhodamine B assay. It is filed as functional, cell-based, HT-1080. Conditions: Homo sapiens, HT-1080, 48 h; read-out: IC50.
As for `COc1ccc(OS(=O)(=O)c2ccc(NC(=O)NCCCl)cc2)cc1`, the IC50 is 15 µM.

For the molecule `O=C(NCCCl)Nc1ccc(S(=O)(=O)Oc2ccc(I)cc2)cc1`, the IC50 is 8.7 µM.

Consider `O=C(NCCCl)Nc1ccc(S(=O)(=O)Oc2ccc(F)cc2)cc1`, for which the IC50 amounted to 11 µM.

As to `O=C(NCCCl)Nc1ccc(S(=O)(=O)Oc2ccccc2)cc1`, the IC50 came out at 8.8 µM.

With `Cc1ccc(C)c(OS(=O)(=O)c2ccc(NC(=O)NCCCl)cc2)c1`, the IC50 was found to be 1.7 µM.

As for `O=C(NCCCl)Nc1ccc(S(=O)(=O)Oc2cccc(F)c2)cc1`, the 50% inhibitory concentration (IC50) turned out to be 4.5 µM.

For the molecule `O=C(NCCCl)Nc1ccc(S(=O)(=O)Oc2cccc(I)c2)cc1`, the IC50 is 1.4 µM.

The next test relates to M21. As to the kind of experiment: Cell cycle arrest in human M21 cells assessed as accumulation at G0/G1 phase at 34 uM after 24 hrs by DAPI staining-based flow cytometry (reference value: 65.1%). It is filed as functional.
Details: not given
Turning to `O=C(NCCCl)Nc1ccc(S(=O)(=O)Oc2cccc(F)c2)cc1`, the Activity came to 2.5%.

The next test relates to M21. Description: Cell cycle arrest in human M21 cells assessed as accumulation at S phase at 7.6 uM after 24 hrs by DAPI staining-based flow cytometry (reference value: 17.4%).
Details: not given
The test is classed as functional.
Turning to `Cc1ccc(C)c(OS(=O)(=O)c2ccc(NC(=O)NCCCl)cc2)c1`, the Activity is reported as 11.9%.

As for `O=C(NCCCl)Nc1ccc(S(=O)(=O)Oc2cccc(I)c2)cc1`, the Activity is 4.9%.

A further test concerns M21. Description: Cell cycle arrest in human M21 cells assessed as accumulation at G2/M phase at 7.6 uM after 24 hrs by DAPI staining-based flow cytometry (reference value: 16%). The test is classed as functional.
Details: not given
Consider `Cc1ccc(C)c(OS(=O)(=O)c2ccc(NC(=O)NCCCl)cc2)c1`, for which the Activity stood at 75.4%.

On to `O=C(NCCCl)Nc1ccc(S(=O)(=O)Oc2cccc(I)c2)cc1`, for which the Activity is listed as 89.5%.

The test system of another test is M21. As to the kind of experiment: Cell cycle arrest in human M21 cells assessed as accumulation at S phase at 34 uM after 24 hrs by DAPI staining-based flow cytometry (reference value: 17.4%). The test is classed as functional.
Details: not given
On to `O=C(NCCCl)Nc1ccc(S(=O)(=O)Oc2cccc(F)c2)cc1`, for which the Activity amounted to 4.4%.

Another test relates to M21. Description: Cell cycle arrest in human M21 cells assessed as accumulation at G0/G1 phase at 7.6 uM after 24 hrs by DAPI staining-based flow cytometry (reference value: 65.1%).
Details: not given
It is filed as functional.
In the case of `Cc1ccc(C)c(OS(=O)(=O)c2ccc(NC(=O)NCCCl)cc2)c1`, the Activity is 7.2%.

With `O=C(NCCCl)Nc1ccc(S(=O)(=O)Oc2cccc(I)c2)cc1`, the Activity came to 2%.

The test system of a further test is M21. Description: Cell cycle arrest in human M21 cells assessed as accumulation at subG1 phase at 34 uM after 24 hrs by DAPI staining-based flow cytometry (reference value: 1.5%). The test is classed as functional.
Details: not given
Regarding `O=C(NCCCl)Nc1ccc(S(=O)(=O)Oc2cccc(F)c2)cc1`, the Activity came to 6.2%.

A further test deals with HT-29. As to the kind of experiment: Antiproliferative activity against human HT-29 cells assessed as growth inhibition incubated for 48 hrs by sulforhodamine B assay. The test is classed as functional, cell-based. Conditions: HT-29, 48 h.
For `COc1ccc(OS(=O)(=O)c2ccc(NC(=O)NCCCl)cc2)cc1`, the 50% inhibitory concentration (IC50) was found to be 22 µM.

On to `O=C(NCCCl)Nc1ccc(S(=O)(=O)Oc2ccc(I)cc2)cc1`, for which the IC50 was 9.5 µM.

`O=C(NCCCl)Nc1ccc(S(=O)(=O)Oc2ccc(F)cc2)cc1`: the IC50 amounted to 12 µM.

Regarding `O=C(NCCCl)Nc1ccc(S(=O)(=O)Oc2ccccc2)cc1`, the IC50 came out at 17 µM.

In the case of `Cc1ccc(C)c(OS(=O)(=O)c2ccc(NC(=O)NCCCl)cc2)c1`, the IC50 was determined as 1.5 µM.

In the case of `O=C(NCCCl)Nc1ccc(S(=O)(=O)Oc2cccc(F)c2)cc1`, the IC50 came out at 5.5 µM.

For the molecule `O=C(NCCCl)Nc1ccc(S(=O)(=O)Oc2cccc(I)c2)cc1`, the IC50 turned out to be 1.3 µM.

Another test deals with MCF7. As to the kind of experiment: Antiproliferative activity against human MCF7 cells assessed as growth inhibition incubated for 48 hrs by sulforhodamine B assay. The test is classed as functional, cell-based. Conditions: MCF7, 48 h.
In the case of `COc1ccc(OS(=O)(=O)c2ccc(NC(=O)NCCCl)cc2)cc1`, the IC50 was 23 µM.

On to `O=C(NCCCl)Nc1ccc(S(=O)(=O)Oc2ccc(I)cc2)cc1`, for which the IC50 is 11 µM.

For the molecule `O=C(NCCCl)Nc1ccc(S(=O)(=O)Oc2ccc(F)cc2)cc1`, the concentration for half-maximal inhibition (IC50) came out at 14 µM.

As to `O=C(NCCCl)Nc1ccc(S(=O)(=O)Oc2ccccc2)cc1`, the 50% inhibitory concentration (IC50) was 19 µM.

On to `Cc1ccc(C)c(OS(=O)(=O)c2ccc(NC(=O)NCCCl)cc2)c1`, for which the IC50 is 1.9 µM.

`O=C(NCCCl)Nc1ccc(S(=O)(=O)Oc2cccc(F)c2)cc1`: the half-maximal inhibitory concentration (IC50) was 7.8 µM.

As to `O=C(NCCCl)Nc1ccc(S(=O)(=O)Oc2cccc(I)c2)cc1`, the IC50 worked out at 1.8 µM.

What is called IC50 is the point on the concentration scale where inhibition reaches its midpoint.
